Laboratory results from patent US20200239530A1, “COMPOUNDS AND METHODS OF MODULATING PROTEIN DEGRADATION” (Vividion Therapeutics, Inc., priority 2017, published 2020).

Tests used:
Experiment in all cases: Cysteine liganding, probe competition
Format in all cases: binding
[1] = biological target: T1, CDK16 Cyclin-dependent kinase 16 (Homo sapiens, UniProt Q00536); details: for Liganded: CDK16 Res# 206, uniprot Q00536
T1 construct: 200 μL of lysate containing 5 mg/ml proteome was treated with 2 μL of 100× compound stock; endogenous in cells
Procedure, shortened: (§1)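 Lysates from probe-sonicated cells in PBS (5 mg/ml proteome) were exposed to compound for 1 hr at 25° C, then labelled with desthiobiotin iodoacetamide probe (10 mM stock) for 1 hr at 25° C. Probe-tagged peptides were streptavidin-enriched after trypsin digestion.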

[2] = biological target: T2, DDX50 ATP-dependent RNA helicase DDX50 (Homo sapiens, UniProt Q9BQ39)
T2 construct: 200 μL of lysate containing 5 mg/ml proteome was treated with 2 μL of 100× compound stock; endogenous in cells
T2 sequence (Q9BQ39 1-737): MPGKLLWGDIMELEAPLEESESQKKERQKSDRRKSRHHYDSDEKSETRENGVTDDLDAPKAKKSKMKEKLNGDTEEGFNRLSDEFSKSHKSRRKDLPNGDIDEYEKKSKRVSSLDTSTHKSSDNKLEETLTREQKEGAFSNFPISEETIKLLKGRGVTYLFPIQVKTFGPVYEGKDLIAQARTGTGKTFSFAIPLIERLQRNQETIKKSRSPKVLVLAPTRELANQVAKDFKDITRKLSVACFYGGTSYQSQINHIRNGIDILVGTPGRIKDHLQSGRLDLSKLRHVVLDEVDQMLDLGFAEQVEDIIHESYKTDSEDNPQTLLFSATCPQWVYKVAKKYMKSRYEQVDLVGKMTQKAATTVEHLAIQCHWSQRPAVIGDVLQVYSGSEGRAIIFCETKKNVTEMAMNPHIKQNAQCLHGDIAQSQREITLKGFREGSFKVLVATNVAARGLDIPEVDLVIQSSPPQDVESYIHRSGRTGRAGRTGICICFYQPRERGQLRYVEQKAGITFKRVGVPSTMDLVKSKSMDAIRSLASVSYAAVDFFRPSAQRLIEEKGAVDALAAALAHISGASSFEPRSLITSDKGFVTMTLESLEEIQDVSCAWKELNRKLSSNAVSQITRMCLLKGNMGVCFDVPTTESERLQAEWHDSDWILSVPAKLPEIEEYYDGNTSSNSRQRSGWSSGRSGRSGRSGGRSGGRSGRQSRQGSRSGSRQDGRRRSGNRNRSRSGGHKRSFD
Procedure, shortened: as §1

[3] = biological target: T3, KBTBD8 Kelch repeat and BTB domain-containing protein 8 (Homo sapiens, UniProt Q8NFY9); details: for 100 Max / 100 ave / 500 Max / 500 ave: uniprot Q8NFY9
T3 construct: Cells were resuspended in cold PBS on ice and sonicated with a probe sonicator to achieve lysis; endogenous in cells
T3 sequence (Q8NFY9 1-601): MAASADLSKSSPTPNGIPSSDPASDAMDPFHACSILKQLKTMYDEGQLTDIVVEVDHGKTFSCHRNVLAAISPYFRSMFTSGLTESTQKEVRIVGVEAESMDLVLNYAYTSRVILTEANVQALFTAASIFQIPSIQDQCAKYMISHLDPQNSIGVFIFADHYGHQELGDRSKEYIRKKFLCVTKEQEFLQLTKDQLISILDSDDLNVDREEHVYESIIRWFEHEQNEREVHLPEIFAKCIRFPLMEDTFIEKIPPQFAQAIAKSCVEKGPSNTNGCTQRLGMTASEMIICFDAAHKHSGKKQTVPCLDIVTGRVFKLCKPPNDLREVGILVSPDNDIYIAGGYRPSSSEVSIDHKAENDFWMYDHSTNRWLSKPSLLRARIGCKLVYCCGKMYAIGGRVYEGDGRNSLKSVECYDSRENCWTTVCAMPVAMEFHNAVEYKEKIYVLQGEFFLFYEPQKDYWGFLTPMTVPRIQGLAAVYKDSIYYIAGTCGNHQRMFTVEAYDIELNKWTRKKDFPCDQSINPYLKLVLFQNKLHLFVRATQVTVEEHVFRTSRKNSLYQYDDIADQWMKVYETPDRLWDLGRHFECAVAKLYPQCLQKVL
Procedure, shortened: as §1

T1 sequence (Q00536 whole entry): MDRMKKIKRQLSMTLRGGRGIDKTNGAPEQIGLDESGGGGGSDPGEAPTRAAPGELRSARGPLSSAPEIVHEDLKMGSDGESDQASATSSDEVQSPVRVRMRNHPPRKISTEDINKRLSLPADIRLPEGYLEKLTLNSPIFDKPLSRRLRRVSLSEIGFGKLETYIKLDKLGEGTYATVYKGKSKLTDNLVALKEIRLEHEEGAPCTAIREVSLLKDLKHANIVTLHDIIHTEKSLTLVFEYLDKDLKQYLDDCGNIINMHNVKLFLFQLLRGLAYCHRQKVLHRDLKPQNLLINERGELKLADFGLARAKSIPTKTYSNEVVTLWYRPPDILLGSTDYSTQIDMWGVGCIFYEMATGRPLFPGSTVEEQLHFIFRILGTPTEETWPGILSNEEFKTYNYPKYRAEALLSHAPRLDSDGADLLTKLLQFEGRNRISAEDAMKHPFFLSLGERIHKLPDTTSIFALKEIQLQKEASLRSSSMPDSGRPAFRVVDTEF

Row | Structure (SMILES) | Liganded [1] | Liganded ([2]; DDX50 Res# 603, uniprot Q9BQ39) | Liganded ([3]; KBTBD8 Res# 181, uniprot Q8NFY9) | 100 Max [3] | 100 ave [3] | 500 Max [3] | 500 ave [3] | 100 Max ([1]; uniprot Q00536) | 100 ave ([1]; uniprot Q00536) | 500 ave ([1]; uniprot Q00536) | 500 Max ([1]; uniprot Q00536, in % (unit assumed)) | 100 Max ([2]; uniprot Q9BQ39) | 100 ave ([2]; uniprot Q9BQ39) | 500 Max ([2]; uniprot Q9BQ39) | 500 ave ([2]; uniprot Q9BQ39)
1 | COc1ccc2c(c1)CCCN2C(=O)CCl [KB02] | YES | YES | YES | 38.4 | 36.7 | 79.2 | 79.2 | – | – | – | – | – | – | – | –
2 | O=C(CCl)Nc1cc(C(F)(F)F)cc(C(F)(F)F)c1 [KBO3] | YES | – | – | 5.3 | −7.4 | 21.5 | 21.5 | 50.67 | 28.2075 | 79.225 | 80.44 | −9.62 | −13.925 | 28.63 | 22.82
